Consider 3 compounds from paper PMC11787520, “Structural basis of the bifunctionality of Marinobacter salinexigens ZYF650^T glucosylglycerol phosphorylase in glucosylglycerol catabolism” (The Journal of Biological Chemistry, 2024).

Each structure is given as a SMILES string.

Assay [1] addresses T1, MsGGP (Marinobacter salinexigens, UniProt A0A5B0VBK8).
T1 construct: gene gtfA; full length, 480 residues, subunit 54,844 Da, N-terminal His6 tag (pET28b), E. coli BL21(DE3); six protomers in asymmetric unit
Put plainly: X-ray crystal structure, […] Å. It is filed as binding. The following applies: active site of chains A and E; reaction intermediate.

Assay [2] has as its target T2, MsGGP (Marinobacter salinexigens, UniProt A0A5B0VBK8, D289A).
T2 construct: gene gtfA; full length, 480 residues, subunit 54,844 Da, N-terminal His6 tag (pET28b), E. coli BL21(DE3); six protomers in asymmetric unit
Put plainly: ion exchange chromatography, activity relative to wild type. It is filed as biochemical. The settings on record: 20 mM GG, 20 mM potassium phosphate, pH 6.6, 45 °C.

Assay [3] deals with T3, MsGGP (Marinobacter salinexigens, UniProt A0A5B0VBK8, D190A).
T3 construct: gene gtfA; full length, 480 residues, subunit 54,844 Da, N-terminal His6 tag (pET28b), E. coli BL21(DE3); six protomers in asymmetric unit
The description is as above. The settings on record: 20 mM GG, 20 mM potassium phosphate, pH 6.6, 45 °C. It is filed as biochemical.

Assay [4] has as its target T4, MsGGP (Marinobacter salinexigens, UniProt A0A5B0VBK8, E231A).
T4 construct: gene gtfA; full length, 480 residues, subunit 54,844 Da, N-terminal His6 tag (pET28b), E. coli BL21(DE3); six protomers in asymmetric unit
Described as above. It is filed as biochemical. The settings on record: 20 mM GG, 20 mM potassium phosphate, pH 6.6, 45 °C.

For assay [5], the target named is T1, MsGGP. Put plainly: X-ray crystal structure, […] Å. It is filed as binding. The settings on record: active site, together with glycerol.

For `O=P(O)(O)O[C@H]1O[C@H](CO)[C@@H](O)[C@H](O)[C@H]1O` [α-D-glucose-1-phosphate], the “X-ray crystal structure, 2.7 Å” value on MsGGP [1] is recorded as “the structure of MsGGP in complex with αGlc1-P was successfully determined”.

For the compound `OCC(CO)O[C@H]1O[C@H](CO)[C@@H](O)[C@H](O)[C@H]1O` [2-O-α-Glucosylglycerol], the “enzyme activity relative to wildtype” value on MsGGP [2], on MsGGP [3] and at MsGGP [4] was “nearly complete loss of enzyme activity following the mutation of these residues to alanine” throughout.

Regarding `OC[C@H]1O[C@H](O)[C@H](O)[C@@H](O)[C@@H]1O` [glucose], on MsGGP [5], the “X-ray crystal structure, 2.5 Å” value was “each protomer features an α-glucose and a glycerol molecule occupying the active site”.
